# Laboratory results taken from US20260297070A1, “CYCLIC [COMPOUND LEFT OUT] WRN INHIBITORS” (Nimbus Wadjet, Inc., priority 2023, published 2026).
# Target: T1, human Werner helicase (WRN-BV08, Uniprot Q14191, amino acids 517-1235 with L1074F point mutation) (Homo sapiens, UniProt Q14191, L1074F)
# T1 construct: Uniprot Q14191, amino acids 517-1235 with L1074F point mutation; TEV-cleavable 8×His (C, cleaved yes); made in house; host or cells: Sf9 insect cells (baculovirus)
# Assay: WRN (BV08) ADP-Glo Assay
# Type: biochemical
# Conditions: 0.15 nM WRN, 5 μM ATP, 0.1 nM DNA duplex, 15 min preincubation, 60 min at 25° C., pH 7.5, 1% DMSO; read-out: ADP-Glo_hWRN_IC50
# Summary of the method: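 WRN 0.15 nM + cpd, 15 min 25 °C; add 5 μM ATP / 0.1 nM annealed DNA duplex; 60 min 25 °C; ADP-Glo stop, RLU. Buffer 20 mM Bicine pH 7.5, 1 mM MgCl2, 10 mM KCl, 1 mM TCEP. IC50, 4-parameter fit.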
# T1 sequence (Q14191 with tags, fused parts or gaps L1074F limits assumed): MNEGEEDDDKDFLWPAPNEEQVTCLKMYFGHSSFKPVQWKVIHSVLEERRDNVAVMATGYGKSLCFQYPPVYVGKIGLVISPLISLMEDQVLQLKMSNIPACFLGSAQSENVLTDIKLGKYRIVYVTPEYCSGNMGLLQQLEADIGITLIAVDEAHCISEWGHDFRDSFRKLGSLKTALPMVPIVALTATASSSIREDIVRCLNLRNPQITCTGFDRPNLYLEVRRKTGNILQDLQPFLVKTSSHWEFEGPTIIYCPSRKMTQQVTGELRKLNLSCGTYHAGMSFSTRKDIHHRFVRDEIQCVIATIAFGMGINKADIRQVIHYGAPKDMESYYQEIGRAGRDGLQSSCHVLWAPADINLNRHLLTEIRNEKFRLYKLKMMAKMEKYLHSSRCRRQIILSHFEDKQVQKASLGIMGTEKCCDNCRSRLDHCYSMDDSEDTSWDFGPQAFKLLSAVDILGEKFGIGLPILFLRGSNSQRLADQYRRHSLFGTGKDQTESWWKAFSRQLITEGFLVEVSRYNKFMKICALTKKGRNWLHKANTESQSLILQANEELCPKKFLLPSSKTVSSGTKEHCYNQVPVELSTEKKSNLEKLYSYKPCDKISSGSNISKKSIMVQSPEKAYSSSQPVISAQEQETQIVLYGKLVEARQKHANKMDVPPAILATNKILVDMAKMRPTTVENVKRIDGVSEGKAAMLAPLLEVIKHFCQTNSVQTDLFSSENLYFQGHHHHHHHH
row,Compound,IC50 [µM]
1,"O=C(Cc1ccc(-n2cccc2)cc1)N(Cc1ccccc1)C1C=CS(=O)(=O)C1 (stereo not drawn) [I-290, N-benzyl-N-(1,1-dioxo-2,3-dihydro-1lambda6-thiophen-3-yl)-2-[4-(1H-pyrrol-1-yl)phenyl]acetamide]",5 to 10
2,"CC(C)(O)c1cc(CN(C(=O)Cc2ncc(-c3ccc(F)c(F)c3)cn2)C2C=CS(=O)(=O)C2)ccn1 (stereo not drawn) [I-116, 2-[5-(3,4-difluorophenyl)pyrimidin-2-yl]-N-(1,1-dioxo-2,3-dihydro-1lambda6-thiophen-3-yl)-N-{[2-(2-hydroxypropan-2-yl)pyridin-4-yl]methyl}acetamide]",0.5 to 5
3,"COc1cc(CN(C(=O)Cc2ccc(S(F)(F)(F)(F)F)cc2F)C2C=CS(=O)(=O)C2)ccn1 (stereo not drawn) [I-22, N-(1,1-dioxido-2,3-dihydrothiophen-3-yl)-2-(2-fluoro-4-(pentafluoro-λ^6-sulfaneyl)phenyl)-N-((2-methoxypyridin-4-yl)methyl)acetamide]",< 0.5
4,"O=C(CN1CCN(c2ccccc2)CC1)N(Cc1ccncc1)C1C=CS(=O)(=O)C1 (stereo not drawn) [I-557, N-(1,1-dioxo-2,3-dihydro-1lambda6-thiophen-3-yl)-2-(4-phenylpiperazin-1-yl)-N-[(pyridin-4-yl)methyl]acetamide]",> 50
5,"Cc1cccn1-c1ccc(CC(=O)N(Cc2ccnc(C(C)(C)O)c2)C2C=CS(=O)(=O)C2)c(F)c1 (stereo not drawn) [I-66, N-(1,1-dioxo-2,3-dihydro-1lambda6-thiophen-3-yl)-2-[2-fluoro-4-(2-methyl-1H-pyrrol-1-yl)phenyl]-N-{[2-(2-hydroxypropan-2-yl)pyridin-4-yl]methyl}acetamide]",< 0.5
6,"CC(C)(O)c1cc(CN(C(=O)Cc2ncc(-c3ccc(F)c(F)c3)cc2F)C2C=CS(=O)(=O)C2)ccn1 (single isomer, unassigned) [I-50, 2-(5-(3,4-difluorophenyl)-3-fluoropyridin-2-yl)-N-(1,1-dioxido-2,3-dihydrothiophen-3-yl)-N-((2-(2-hydroxypropan-2-yl)pyridin-4-yl)methyl)acetamide]",< 0.5
7,"O=C(Cc1nc(C(F)(F)F)cs1)N(Cc1ccncc1)C1C=CS(=O)(=O)C1 (stereo not drawn) [I-371, N-(1,1-dioxo-2,3-dihydro-1lambda6-thiophen-3-yl)-N-[(pyridin-4-yl)methyl]-2-[4-(trifluoromethyl)-1,3-thiazol-2-yl]acetamide]",> 50
8,"O=C(Cc1ccn(-c2ccc(F)cc2)n1)N(Cc1ccncc1)C1C=CS(=O)(=O)C1 (stereo not drawn) [I-394, N-(1,1-dioxo-2,3-dihydro-1lambda6-thiophen-3-yl)-2-[1-(4-fluorophenyl)-1H-pyrazol-3-yl]-N-[(pyridin-4-yl)methyl]acetamide]",> 50
9,"O=C(Cc1ccc(-n2cccc2)cc1)N(Cc1cccc(Cl)c1)C1C=CS(=O)(=O)C1 (stereo not drawn) [I-201, N-[(3-chlorophenyl)methyl]-N-(1,1-dioxo-2,3-dihydro-1lambda6-thiophen-3-yl)-2-[4-(1H-pyrrol-1-yl)phenyl]acetamide]",0.5 to 5
10,"COc1cc(CN(C(=O)C2Cc3cc(C(F)(F)F)ccc3O2)[C@@H]2C=CS(=O)(=O)C2)ccn1 (stereo partly drawn) [I-114, N-[(3R)-1,1-dioxo-2,3-dihydro-1lambda6-thiophen-3-yl]-N-[(2-methoxypyridin-4-yl)methyl]-5-(trifluoromethyl)-2,3-dihydro-1-benzofuran-2-carboxamide]",0.5 to 5
11,"CC(C)(O)c1cc(CN(C(=O)Cc2ccc(-n3cccc3)cc2F)C2C=CS(=O)(=O)C2)ccn1 (single isomer, unassigned) [I-40]",< 0.5
12,"COC(C(=O)N(Cc1ccnc(C(C)(C)O)c1)C1C=CS(=O)(=O)C1)c1ccc(-c2ccc(F)cc2)cc1F (stereo not drawn) [I-28, 2-{3,4′-difluoro-[1,1′-biphenyl]-4-yl}-N-(1,1-dioxo-2,3-dihydro-1lambda6-thiophen-3-yl)-N-{[2-(2-hydroxypropan-2-yl)pyridin-4-yl]methyl}-2-methoxyacetamide]",< 0.5
13,"O=C(Cc1ccc(-n2cccc2)cc1)N(Cc1nc(C2CC2)cs1)[C@@H]1C=CS(=O)(=O)C1 [I-83, N-[(4-cyclopropyl-1,3-thiazol-2-yl)methyl]-N-[(3R)-1,1-dioxo-2,3-dihydro-1lambda6-thiophen-3-yl]-2-[4-(1H-pyrrol-1-yl)phenyl]acetamide]",< 0.5
14,"O=C(Cc1ccc(-c2ccc(F)cc2)cc1C(F)F)N(Cc1ccncc1)C1C=CS(=O)(=O)C1 (stereo not drawn) [I-196, 2-[3-(difluoromethyl)-4′-fluoro-[1,1′-biphenyl]-4-yl]-N-(1,1-dioxo-2,3-dihydro-1lambda6-thiophen-3-yl)-N-[(pyridin-4-yl)methyl]acetamide]",0.5 to 5
15,"O=C(Cc1cccc(C(F)(F)F)c1)N(Cc1ccncc1)C1C=CS(=O)(=O)C1 (stereo not drawn) [I-536, N-(1,1-dioxo-2,3-dihydro-1lambda6-thiophen-3-yl)-N-[(pyridin-4-yl)methyl]-2-[3-(trifluoromethyl)phenyl]acetamide]",> 50
16,"N#Cc1cccn1-c1ccc(CC(=O)N(Cc2ccncc2)C2C=CS(=O)(=O)C2)cc1 (stereo not drawn) [I-272, 2-[4-(2-cyano-1H-pyrrol-1-yl)phenyl]-N-(1,1-dioxo-2,3-dihydro-1lambda6-thiophen-3-yl)-N-[(pyridin-4-yl)methyl]acetamide]",5 to 10
17,"O=C(Cc1ccc(C2CC(F)(F)C2)cc1)N(Cc1ccncc1)C1C=CS(=O)(=O)C1 (stereo not drawn) [I-359, 2-[4-(3,3-difluorocyclobutyl)phenyl]-N-(1,1-dioxo-2,3-dihydro-1lambda6-thiophen-3-yl)-N-[(pyridin-4-yl)methyl]acetamide]",10 to 50

# Other lines, results leading:
row,IC50 [µM],Compound
1,< 0.5,"CNC(=O)C(C(=O)N(Cc1ccnc(OC)c1)[C@@H]1C=CS(=O)(=O)C1)c1ccc(-c2ccc(F)c(F)c2)cc1F (stereo partly drawn) [I-688, N′-[(3R)-1,1-dioxo-2,3-dihydro-1lambda6-thiophen-3-yl]-N′-[(2-methoxypyridin-4-yl)methyl]-N-methyl-2-{3,3′,4′-trifluoro-[1,1′-biphenyl]-4-yl}propanediamide]"
2,0.5 to 5,"CC(C)(O)c1cc(CN(C(=O)C2CCCc3c(-c4cc(F)c(F)c(F)c4)cnn32)[C@@H]2C=CS(=O)(=O)C2)ccn1 (single isomer, unassigned) [I-806]"
3,10 to 50,"CC(C)(O)c1cc(CN(C(=O)Cc2cc(-c3ccc(F)c(F)c3)n[nH]2)C2C=CS(=O)(=O)C2)ccn1 (single isomer, unassigned) [I-781]"
4,0.5 to 5,"COc1cc(CN(C(=O)C(OCC#N)c2ccc(-c3ccc(F)c(F)c3)cc2F)[C@@H]2C=CS(=O)(=O)C2)ccn1 (stereo partly drawn) [I-691, 2-(cyanomethoxy)-N-[(3R)-1,1-dioxo-2,3-dihydro-1lambda6-thiophen-3-yl]-N-[(2-methoxypyridin-4-yl)methyl]-2-{3,3′,4′-trifluoro-[1,1′-biphenyl]-4-yl}acetamide]"
5,10 to 50,"CC(C(=O)N(Cc1ccnc(C(C)(C)O)c1)C1C=CS(=O)(=O)C1)n1cc(-c2ccc(C(F)(F)F)cc2)cn1 (single isomer, unassigned) [I-774, (2R*)-N-[(3R**)-1,1-dioxo-2,3-dihydro-1lambda6-thiophen-3-yl]-N-{[2-(2-hydroxypropan-2-yl)pyridin-4-yl]methyl}-2-{4-[4-(trifluoromethyl)phenyl]-1H-pyrazol-1-yl}propanamide]"
6,10 to 50,"C[Si](C)(C)c1ccc(CC(=O)N(Cc2ccncc2)C2C=CS(=O)(=O)C2)cc1 (stereo not drawn) [I-587, N-(1,1-dioxo-2,3-dihydro-1lambda6-thiophen-3-yl)-N-[(pyridin-4-yl)methyl]-2-[4-(trimethylsilyl)phenyl]acetamide]"
7,> 50,"O=C(Cn1ncc2ccc(C(F)F)cc21)N(Cc1ccncc1)C1C=CS(=O)(=O)C1 (stereo not drawn) [I-593, 2-[6-(difluoromethyl)-1H-indazol-1-yl]-N-(1,1-dioxo-2,3-dihydro-1lambda6-thiophen-3-yl)-N-[(pyridin-4-yl)methyl]acetamide]"
8,> 50,"O=C(Cc1ccc(N2CCOCC2)cc1)N(Cc1ccncc1)C1C=CS(=O)(=O)C1 (stereo not drawn) [I-564, N-(1,1-dioxo-2,3-dihydro-1lambda6-thiophen-3-yl)-2-[4-(morpholin-4-yl)phenyl]-N-[(pyridin-4-yl)methyl]acetamide]"
9,< 0.5,"CC(C)(O)c1cc(CN(C(=O)C(OCC2CC2)c2ccc(-c3ccc(F)c(F)c3)cc2F)[C@@H]2C=CS(=O)(=O)C2)ccn1 (single isomer, unassigned) [I-815]"
10,0.5 to 5,"COc1cc(CN(C(=O)C(OCC2CN(S(C)(=O)=O)C2)c2ccc(-c3ccc(F)c(F)c3)cc2F)[C@@H]2C=CS(=O)(=O)C2)ccn1 (stereo partly drawn) [I-810, N-[(3R)-1,1-dioxo-2,3-dihydro-1lambda6-thiophen-3-yl]-2-[(1-methanesulfonylazetidin-3-yl)methoxy]-N-[(2-methoxypyridin-4-yl)methyl]-2-{3,3′,4′-trifluoro-[1,1′-biphenyl]-4-yl}acetamide]"
11,0.5 to 5,"COc1cc(C(C)N(C(=O)Cn2cc(-c3cc(F)c(F)c(F)c3)cn2)C2C=CS(=O)(=O)C2)ccn1 (single isomer, unassigned) [I-831, N-[(3R**)-1,1-dioxo-2,3-dihydro-1lambda6-thiophen-3-yl]-N-[(1R*)-1-(2-methoxypyridin-4-yl)ethyl]-2-[4-(3,4,5-trifluorophenyl)-1H-pyrazol-1-yl]acetamide]"
12,> 50,"CN(C)Cc1cccn1-c1ccc(CC(=O)N(Cc2ccccc2)C2C=CS(=O)(=O)C2)cc1 (stereo not drawn) [I-567, N-benzyl-2-(4-{2-[(dimethylamino)methyl]-1H-pyrrol-1-yl}phenyl)-N-(1,1-dioxo-2,3-dihydro-1lambda6-thiophen-3-yl)acetamide]"
13,> 50,"O=C([C@H]1CC[C@@H](c2ccccc2)O1)N(Cc1ccncc1)C1C=CS(=O)(=O)C1 (mixture of isomers) [I-652, rac-(2R,5S)-N-(1,1-dioxo-2,3-dihydro-1lambda6-thiophen-3-yl)-5-phenyl-N-[(pyridin-4-yl)methyl]oxolane-2-carboxamide]"
